From ChEMBL document CHEMBL3862032, “Design, Synthesis, and Cytotoxic Evaluation of Novel Tubulysin Analogues as ADC Payloads” (ACS Med Chem Lett, 2016) come the findings set out here.

Experiment [1] is described as follows: Cytotoxicity against human NCI-N87 cells assessed as decrease in cell viability after 4 days by MTS assay. The experiment is classed as functional, cell-based. As to conditions: NCI-N87, 96 h.
Experiment [2] in a line: Cytotoxicity against human MDA-MB-361/DYT2 cells assessed as decrease in cell viability after 4 days by MTS assay. The experiment is classed as functional, cell-based. As to conditions: MDA-MB-361, 96 h. (In general: Tetrazolium dyes change colour on reduction, which living cells bring about.)
Experiment [3] in a line: Cytotoxicity against MDR1 deficient human KB cells assessed as decrease in cell viability after 4 days by MTS assay. As to conditions: 96 h. It counts as functional, cell-based.
Experiment [4] can be described thus: Cytotoxicity against human KB 8.5 cells expressing MDR1 assessed as decrease in cell viability after 4 days by MTS assay. The experiment is classed as functional, cell-based. As to conditions: KB 8.5, 96 h.
Experiment [5] relates to KB. Description: Resistance ratio of IC50 for human KB 8.5 cells expressing MDR1 to IC50 for MDR1 deficient human KB cells. The experiment is classed as functional.

The structures appear in SMILES notation.

Broadly, the IC50 is the concentration that inhibits the measured activity by half.

Regarding `CC[C@H](C)[C@H](NC(=O)[C@H]1CCCCN1C)C(=O)N(C)[C@H](C[C@@H](OC(C)=O)c1nc(C(=O)N[C@@H](Cc2ccccc2)C[C@H](C)C(=O)OC)cs1)C(C)C`, the half-inhibitory concentration (IC50) in experiment [1] was found to be 0.32 nM; in experiment [2] it was 0.22 nM; in experiment [3], 0.22 nM; in experiment [4], 0.7 nM. Besides, the “Ratio IC50” value in experiment [5] is reported as 3.

With `CC[C@H](C)[C@H](NC(=O)[C@@]1(C)CCCN1)C(=O)N(C)[C@H](C[C@@H](OC(C)=O)c1nc(C(=O)N[C@@H](Cc2ccccc2)C[C@H](C)C(=O)OC)cs1)C(C)C`, the IC50 in experiment [1] was 59 nM; in experiment [2] it was 24 nM; in experiment [3] it was 18.6 nM; in experiment [4], 179 nM. Besides, the “Ratio IC50” value in experiment [5] worked out at 9.

As for `CC[C@H](C)[C@H](NC(=O)[C@H]1CCCCN1C)C(=O)N(C)[C@H](C[C@@H](OC(C)=O)c1nc(C(=O)N[C@@H](Cc2ccccc2)C[C@H](C)C(=O)O)cs1)C(C)C`, the IC50 was determined as 0.46 nM in experiment [1], 0.13 nM in experiment [2], 0.33 nM in experiment [3] and 1.1 nM in experiment [4]. Further, the “Ratio IC50” value in experiment [5] turned out to be 3.

As to `CC[C@H](C)[C@H](NC(=O)[C@H]1CCCCN1)C(=O)N(C)[C@H](C[C@@H](OC(C)=O)c1nc(C(=O)N[C@@H](Cc2ccccc2)C[C@H](C)C(=O)OC)cs1)C(C)C`, the 50% inhibitory concentration (IC50) in experiment [1] came out at 7.74 nM; in experiment [2], 1.68 nM; in experiment [3], 2.6 nM; in experiment [4] it was 141 nM. Further, the “Ratio IC50” value in experiment [5] amounted to 54.

Consider `CC[C@H](C)[C@H](NC(=O)[C@H](NC)C(C)C)C(=O)N(C)[C@H](C[C@@H](OC(C)=O)c1nc(C(=O)N[C@@H](Cc2ccccc2)C[C@H](C)C(=O)OC)cs1)C(C)C`, for which the IC50 came to 0.89 nM in experiment [1], 1.06 nM in experiment [2], 1.76 nM in experiment [3] and 33.6 nM in experiment [4]. Besides, in experiment [5], the “Ratio IC50” value amounted to 19.

As for `CC[C@H](C)[C@H](NC(=O)[C@@]1(C)CCCN1C)C(=O)N(C)[C@H](C[C@@H](OC(C)=O)c1nc(C(=O)NC(CO)Cc2ccccc2)cs1)C(C)C` (mixture of isomers), the IC50 in experiment [1] amounted to 29.1 nM; in experiment [2], 16.5 nM; in experiment [3], 18 nM; in experiment [4], 69.2 nM. Moreover, the “Ratio IC50” value in experiment [5] came out at 4.

For the compound `CC[C@H](C)[C@H](NC(=O)[C@@]1(C)CCCN1C)C(=O)N(C)[C@H](C[C@@H](OC(C)=O)c1nc(C(=O)N[C@@H](Cc2ccccc2)C(O)c2nccs2)cs1)C(C)C` (mixture of isomers), the IC50 was 11.1 nM in experiment [1], 6.39 nM in experiment [2], 8.64 nM in experiment [3] and 39.4 nM in experiment [4]. Further, in experiment [5], the “Ratio IC50” value is 5.
